From patent publication US20260325655A1, “DECREASING THE INTRINSICALLY DISORDERED PROTEIN ALPHA-SYNUCLEIN’S LEVELS BY TARGETING ITS STRUCTURED MRNA WITH A RIBONUCLEASE TARGETING CHIMERA” (University of Florida Research Foundation, Incorporated, priority 2023, published 2026)
Read-outs that look alike come from different tables or passages of the source.

Legend:
SH-SY5Y cells = assay: transcriptome-wide RNA-seq in SH-SY5Y cells; type: cell-based, human; details: for inhibition at 2 µM: Homo sapiens, not statistically significant
Experimental: RNA-seq analysis. Total RNA was quantified using the Qubit 2.0 Fluorometer (Invitrogen) and an Agilent 2100 Bioanalyzer RNA nano chip. Samples with RIN>9.0 were proceeded to library preparation using NEBNext Ultra II Directional RNA Kit (Cat. #E7760, NEB) following manufacture's protocol. Briefly, 200 ng of total RNA was depleted of ribosomal RNA using the NEBNext rRNA Depletion Module. The product was chemically fragmented using NEBNext Magnesium RNA Fragmentation Module (E6150S, NEB) the at 94° C. for 15 min. First-strand synthesis was performed with random primers, and second strand was synthesized with dUTP in place of dTTP. After end repair and 3′ adenylation, the cDNA was ligated with adaptors and then treated with USER enzyme (Uracil-specific excision reagent). The product was PCR amplified with Illumina-barcoded primers to generate the cDNA libraries. The final libraries were analyzed on the bioanalyzer DNA chips, pooled in equimolar ratios, and loaded onto the NextSeq 500 v2.5 flow cell and sequenced with 2×40 bp paired-end chemistry. The raw data were aligned to the human genome using STAR.^11 Read counts were extracted using featureCounts,^12 and the differential gene analysis was performed using Deseq2.^13

MYO15B = MYO15B protein in SH-SY5Y cells by Western blot; type: cell-based, human; details: 2 μM, 48 h
Experimental: Western blotting. After 48 h, cells were gently washed with ice-cold 1× DPBS, and total protein was extracted with Mammalian Protein Extraction Reagent (M-PER, Thermo Scientific) per the manufacturer's protocol. After quantifying protein concentration by using BCA Protein Assay Kit (Pierce Biotechnology), ~30 μg of total protein for each sample was separated using a 10% SDS-polyacrylamide gel and transferred onto a PVDF membrane. The membrane was fixed with 0.4% paraformaldehyde (pH=7.0) for 30 min at room temperature^9 and then blocked with 5% (w/v) non-fat dry milk in 1× TBST (1× TBS containing 0.1% Tween-20) for 1 h at room temperature. […] After washing 10 min each with 1× TBST three times, immunocomplex signals of each protein were detected by using a SuperSignal West Pico Chemiluminescent Substrate (Pierce Biotechnology) according to the manufacturer's protocol. The memebrane was then stripped by using 1× Stripping Buffer (200 mM glycine, pH 2.2, 4 mM SDS, 1% (v/v) Tween 20) at room temperature for 15 min, followed by blocking with 5% (w/v) non-fat dry milk at room temperature for 1 h. β-actin was used to normalize the levels of all proteins, measured by incubating with a primary antibody for β-actin (1:5000, 3700S from Cell Signaling Technology) at 4° C. overnight. […]

[1] = of 447 detectable IRE-containing mRNAs

## CCOC(=O)C1=C(Nc2ccccc2)S/C(=C\c2ccc(OCCOCCOCCOCCNC(=O)CCCOc3ccc(-n4c(SCC(=O)Nc5ccc6cn[nH]c6c5)nnc4-c4ccncc4)cc3)c(O)c2)C1=O [Syn-RiboTAC]
SH-SY5Y cells; 2 μM, of 30,175 genes detected
  number of genes downregulated: 34
  number of genes upregulated: 14
  percent of genes affected: 0.16%
SH-SY5Y cells; 2 μM, of 30,175 genes detected, log 2fold change >0.58, p<0.05
  number of genes affected: 48
SH-SY5Y cells; SH-SY5Y, RNA-seq, read-out: reduction of BLVRB transcript level
  inhibition at 2 µM: ~20%
SH-SY5Y cells; SH-SY5Y, RNA-seq, read-out: reduction of SNCA transcript abundance by RNA-seq
  inhibition at 2 µM: ~35%
SH-SY5Y cells; RNA-seq, SH-SY5Y
  APP, ferritin, and TfR transcript levels in the RNA-seq data: unaffected
SH-SY5Y cells; of 38 Chem-CLIP-bound transcripts detected in RNA-seq, including SNCA
  number of bound transcripts whose levels were reduced (cleaved): four
SH-SY5Y cells; [1]
  number of IRE-containing mRNAs affected: 19
  number of IRE-containing mRNAs downregulated: 11
  number of IRE-containing mRNAs upregulated: 8
MYO15B
  reduction of MYO15B protein level: ~ 20%
